Results from US7807867B2, “Gene encoding protein involved in cytokinin synthesis” (Suntory Holdings Limited, priority 2001, dated 2010).

B1: AtIPT4 (Arabidopsis thaliana) (protein)
chain: MKCNDKMVVIMGATGSGKSSLSVDLALHFKAEIINSDKMQFYDGLKITTNQSTIEDRRGVPHHLLGELNPEAGEVTAAEFRVMAAEAISEITQRKKLPILAGGSNSYIHALLAKSYDPENYPFSDHKGSICSELKYDCCFIWIDVDQSVLFEYLSLRLDLMMKSGMFEEIAEFHRSKKAPKEPLGIWKAIGVQEFDDYLKMYKWDNDMDKWDPMRKEAYEKAVRAIKENTFQLTKDQITKINKLRNAGWDIKKVDATASFREAIRAAKEGEGVAEMQRKIWNKEVLEPCVKIVRSHLDQPINYYYYYFYLLKRFLSLN

Columns and labels:
AtIPT4 = target: T1, AtIPT4 (Arabidopsis thaliana, UniProt Q9SB60); assay: Enzyme activity of purified AtIPT4 protein (dimethylallyl transfer, Km); type: biochemical; settings: for transfer of the dimethylallyl group of DMAPP to the substrate: 3H-labeled substrate at 0.25 μM, Ni-NTA bound AtIPT4 (Sample D), 30 minutes at 23° C.
T1 construct: made in house
T1 sequence (Q9SB60 1-318): B1 chain
Protocol: This was designated as Sample A. 400 μl of Ni-NTA agarose suspension (containing 110 μl of Ni-NTA agarose as precipitate, 30 mM NaH2PO4 (pH 8), […], 0.9 M NaCl, 7.5 mM β-mercaptoethanol, 0.5 mM PMSF and 30 μg/ml of leupeptin) were added to 800 μl of Sample A. This suspension was designated as Sample B. Sample B was then centrifuged to separate into supernatant (Sample C) and precipitate. Washing liquid (consisting of 20 mM NaH2PO4 (pH 8), […], 0.3 M NaCl, 5 mM β-mercaptoethanol, 0.5 mM PMSF and 10 μg/ml of leupeptin) was added to the precipitate, and the Ni-NTA agarose was washed four times using a procedure in which the precipitate was recovered by centrifugation. […] After adding 700 μl of ethyl acetate to this reaction liquid followed by stirring and centrifuging, 550 μl of the ethyl acetate layer were recovered followed by the addition of 500 μl of distilled water. After stirring and centrifugal separation, 350 μl of the ethyl acetate layer were recovered followed again by the addition of 500 μl of distilled water. After again stirring and separating by centrifugation, 0.5 ml of ACSII (Pharmacia) were added to 50 μl of the ethyl acetate layer followed by measurement of radioactivity with a liquid scintillation counter.

AtIPT1 = target: T2, AtIPT1 (Arabidopsis thaliana, UniProt Q94ID3); assay: Enzyme activity of AtIPT1 protein (dimethylallyl transfer); type: biochemical
T2 construct: made in house
T2 sequence (Q94ID3 72-357): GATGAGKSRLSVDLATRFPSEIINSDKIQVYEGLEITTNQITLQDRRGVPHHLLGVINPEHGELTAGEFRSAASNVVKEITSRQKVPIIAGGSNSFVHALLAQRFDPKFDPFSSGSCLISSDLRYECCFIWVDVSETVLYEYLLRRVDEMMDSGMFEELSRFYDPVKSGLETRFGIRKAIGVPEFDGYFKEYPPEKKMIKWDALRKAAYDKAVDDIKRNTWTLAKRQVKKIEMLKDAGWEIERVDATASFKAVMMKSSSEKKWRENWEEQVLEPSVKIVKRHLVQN

tzs = tzs (Agrobacterium fabrum, UniProt P58758); settings: read-out: Km of tzs for AMP; cited from earlier work
[1] = substrate: CC(C)=CCOP(=O)(O)OP(=O)(O)O; assay: purified protein, by the assay type; settings: other: in the presence of 200 μM ATP; purified recombinant AtIPT4 protein; 23.0 °C

tzs, sequence (P58758 whole entry): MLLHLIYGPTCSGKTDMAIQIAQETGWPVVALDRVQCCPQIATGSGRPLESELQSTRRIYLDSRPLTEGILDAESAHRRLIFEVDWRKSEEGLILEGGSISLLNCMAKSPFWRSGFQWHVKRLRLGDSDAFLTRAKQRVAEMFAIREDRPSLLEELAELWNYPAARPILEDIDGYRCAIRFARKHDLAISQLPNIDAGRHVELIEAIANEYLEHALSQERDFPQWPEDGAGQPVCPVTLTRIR

| Molecule | transfer of the dimethylallyl group of DMAPP to the substrate (AtIPT4) | Km (AtIPT4; in the presence of 0.4 mM DMAPP, purified recombinant AtIPT4 protein (2 ng/ml), read-out: Km for ATP) [µM] | transfer of a dimethylallyl group to the substrate (AtIPT1) | Km (tzs) [µM] | Km [1] [µM] |
| --- | --- | --- | --- | --- | --- |
| Nc1ncnc2c1ncn2[C@@H]1O[C@H](COP(=O)(O)OP(=O)(O)OP(=O)(O)O)[C@@H](O)[C@H]1O [ATP] | efficiently transferred | ~11.1 | activity that transfers a dimethylallyl group |  |  |
| Nc1ncnc2c1ncn2[C@@H]1O[C@H](COP(=O)(O)O)[C@@H](O)[C@H]1O [AMP, adenosine monophosphate] |  |  |  | 11.1 |  |
| Nc1ncnc2c1ncn2[C@@H]1O[C@H](COP(=O)(O)OP(=O)(O)O)[C@@H](O)[C@H]1O [ADP] | efficiently transferred |  | activity that transfers a dimethylallyl group |  |  |
| B1 |  |  |  |  | 6.5 |
